According to ChEMBL document CHEMBL1255492, “Molecular characterization of beta-lactamase genes and their genetic structures in Acinetobacter genospecies 3 isolates in Taiwan” (2010):
Values after ≈ are worked out from the molar mass of the structure shown.

Assays:
Assay type in all cases: functional
Acinetobacter pittii [1] = experiment: Antibacterial activity against Acinetobacter genomosp. 3 isolates assessed as percent of resistance isolates by broth micro dilution
Acinetobacter pittii [2] = experiment: Antibacterial activity against Acinetobacter genomosp. 3 isolates by broth micro dilution
Acinetobacter pittii [3] = experiment: Antibacterial activity against Pulsotype L Acinetobacter genomosp. 3 isolate 2 containing IMP-8, OXA-58, ADC-43, ISAba1, ISAba3, IS1008, intI1 genetic elements by broth micro dilution
Acinetobacter pittii [4] = experiment: Antibacterial activity against Pulsotype M Acinetobacter genomosp. 3 isolate 5 containing IMP-1, OXA-58, ADC-43, ISAba2, ISAba3, IS1008, intI1 genetic elements by broth micro dilution
Acinetobacter pittii [5] = experiment: Antibacterial activity against Pulsotype B Acinetobacter genomosp. 3 isolate 8 containing IMP-1, OXA-58, ADC-18, ISAba1, ISAba3, IS1008, intI1 genetic elements by broth micro dilution
Acinetobacter pittii [6] = experiment: Antibacterial activity against Pulsotype I Acinetobacter genomosp. 3 isolate 10 containing IMP-1, OXA-58, ADC-18, ISAba1, ISAba3, IS1008, intI1 genetic elements by broth micro dilution
Acinetobacter pittii [7] = experiment: Antibacterial activity against Pulsotype I Acinetobacter genomosp. 3 isolate 11 containing IMP-1, OXA-58, ADC-18, ISAba1, ISAba3, IS1008, intI1 genetic elements by broth micro dilution
Acinetobacter pittii [8] = experiment: Antibacterial activity against Pulsotype D Acinetobacter genomosp. 3 isolate 18 containing IMP-1, OXA-58, ADC-18, ISAba1, ISAba3, repAcil, IS1008, intI1 genetic elements by broth micro dilution
Acinetobacter pittii [9] = experiment: Antibacterial activity against Pulsotype C Acinetobacter genomosp. 3 isolate 1 containing IMP-1, OXA-58, ADC-18, ISAba1, ISAba3, IS1008, intI1 genetic elements by broth micro dilution
Acinetobacter pittii [10] = experiment: Antibacterial activity against Pulsotype K Acinetobacter genomosp. 3 isolate 6 containing IMP-1, OXA-58, ADC-18, ISAba1, ISAba3, IS1008, intI1 genetic elements by broth micro dilution
Acinetobacter pittii [11] = experiment: Antibacterial activity against Pulsotype L Acinetobacter genomosp. 3 isolate 7 containing IMP-1, OXA-58, ADC-18, ISAba1, ISAba3, IS1008, intI1 genetic elements by broth micro dilution
Acinetobacter pittii [12] = experiment: Antibacterial activity against Pulsotype J Acinetobacter genomosp. 3 isolate 15 containing IMP-1, OXA-58, ADC-18, ISAba1, ISAba3, IS1008, intI1 genetic elements by broth micro dilution
Acinetobacter pittii [13] = experiment: Antibacterial activity against Pulsotype F Acinetobacter genomosp. 3 isolate 4 containing IMP-1, OXA-58, ADC-18, ISAba1, ISAba3, IS18, IS1008, intI1 genetic elements by broth micro dilution
Acinetobacter pittii [14] = experiment: Antibacterial activity against Pulsotype M Acinetobacter genomosp. 3 isolate 5 containing IMP-1, OXA-58, ADC-43, ISAba2, ISAba3, IS1008, intI1 genetic elements by agar dilution method
Acinetobacter pittii [15] = experiment: Antibacterial activity against Acinetobacter genomosp. 3 isolates by agar dilution method
Acinetobacter pittii [16] = experiment: Antibacterial activity against Pulsotype F Acinetobacter genomosp. 3 isolate 4 containing IMP-1, OXA-58, ADC-18, ISAba1, ISAba3, IS18, IS1008, intI1 genetic elements by agar dilution method
Acinetobacter pittii [17] = experiment: Antibacterial activity against Pulsotype K Acinetobacter genomosp. 3 isolate 6 containing IMP-1, OXA-58, ADC-18, ISAba1, ISAba3, IS1008, intI1 genetic elements by agar dilution method
Acinetobacter pittii [18] = experiment: Antibacterial activity against Pulsotype C Acinetobacter genomosp. 3 isolate 1 containing IMP-1, OXA-58, ADC-18, ISAba1, ISAba3, IS1008, intI1 genetic elements by agar dilution method
Acinetobacter pittii [19] = experiment: Antibacterial activity against Pulsotype I Acinetobacter genomosp. 3 isolate 11 containing IMP-1, OXA-58, ADC-18, ISAba1, ISAba3, IS1008, intI1 genetic elements by agar dilution method
Acinetobacter pittii [20] = experiment: Antibacterial activity against Pulsotype L Acinetobacter genomosp. 3 isolate 7 containing IMP-1, OXA-58, ADC-18, ISAba1, ISAba3, IS1008, intI1 genetic elements by agar dilution method
Acinetobacter pittii [21] = experiment: Antibacterial activity against Pulsotype L Acinetobacter genomosp. 3 isolate 2 containing IMP-8, OXA-58, ADC-43, ISAba1, ISAba3, IS1008, intI1 genetic elements by agar dilution method
Acinetobacter pittii [22] = experiment: Antibacterial activity against Acinetobacter genomosp. 3 isolates assessed as percent of resistance isolates by agar dilution method
Acinetobacter pittii [23] = experiment: Antibacterial activity against Pulsotype B Acinetobacter genomosp. 3 isolate 8 containing IMP-1, OXA-58, ADC-18, ISAba1, ISAba3, IS1008, intI1 genetic elements by agar dilution method
Acinetobacter pittii [24] = experiment: Antibacterial activity against Pulsotype J Acinetobacter genomosp. 3 isolate 15 containing IMP-1, OXA-58, ADC-18, ISAba1, ISAba3, IS1008, intI1 genetic elements by agar dilution method
Acinetobacter pittii [25] = experiment: Antibacterial activity against Pulsotype I Acinetobacter genomosp. 3 isolate 10 containing IMP-1, OXA-58, ADC-18, ISAba1, ISAba3, IS1008, intI1 genetic elements by agar dilution method
Acinetobacter pittii [26] = experiment: Antibacterial activity against Pulsotype D Acinetobacter genomosp. 3 isolate 18 containing IMP-1, OXA-58, ADC-18, ISAba1, ISAba3, repAcil, IS1008, intI1 genetic elements by agar dilution method
Enterobacteriaceae [27] = experiment: Antibacterial activity against Enterobacteriaceae assessed as resistant breakpoint by CLSI method
Enterobacteriaceae [28] = experiment: Antibacterial activity against Enterobacteriaceae assessed as intermediate breakpoint by CLSI method
Enterobacteriaceae [29] = experiment: Antibacterial activity against Enterobacteriaceae assessed as susceptibility breakpoint by CLSI method

Row | Compound | Activity (Acinetobacter pittii [1]) [%] | MIC50 (Acinetobacter pittii [2]) [µg/mL] | MIC90 (Acinetobacter pittii [2]) [µg/mL] | MIC (Acinetobacter pittii [3]) [µg/mL] | MIC (Acinetobacter pittii [4]) [µg/mL] | MIC (Acinetobacter pittii [5]) [µg/mL] | MIC (Acinetobacter pittii [6]) [µg/mL] | MIC (Acinetobacter pittii [7]) [µg/mL] | MIC (Acinetobacter pittii [8]) [µg/mL] | MIC (Acinetobacter pittii [9]) [µg/mL] | MIC (Acinetobacter pittii [10]) [µg/mL] | MIC (Acinetobacter pittii [11]) [µg/mL] | MIC (Acinetobacter pittii [12]) [µg/mL] | MIC (Acinetobacter pittii [13]) [µg/mL] | also measured
1 | COLISTIN | 0 | 1 | 2 |  |  |  |  |  |  |  |  |  |  |  | 
2 | CO/N=C(\C(=O)N[C@@H]1C(=O)N2C(C(=O)O)=C(CSc3nc(=O)c(O)nn3C)CS[C@H]12)c1csc(N)n1 [CEFTRIAXONE] | 63.2 | ≥ 64 | ≥ 64 | > 32 | > 32 | > 32 | > 32 | > 32 | > 32 | > 32 | > 32 | > 32 | > 32 | > 32 | 
3 | CC(C)(O/N=C(\C(=O)N[C@@H]1C(=O)N2C(C(=O)[O-])=C(C[n+]3ccccc3)CS[C@H]12)c1csc(N)n1)C(=O)O [CEFTAZIDIME] | 68.4 | ≥ 64 | ≥ 64 | > 32 | > 32 | > 32 | > 32 | > 32 | > 32 | > 32 | > 32 | > 32 | > 32 | > 32 | 
4 | O=C(O)c1cn(C2CC2)c2cc(N3CCNCC3)c(F)cc2c1=O [CIPROFLOXACIN] | 5.3 | 0.25 (≈ 0.754 µM) | 2 (≈ 6.04 µM) |  |  |  |  |  |  |  |  |  |  |  | 
5 | C[C@H]1[C@H](NC(=O)/C(=N\OC(C)(C)C(=O)O)c2csc(N)n2)C(=O)N1S(=O)(=O)O [AZTREONAM] | 94.7 | ≥ 32 | ≥ 32 | > 16 | > 16 | > 16 | > 16 | > 16 | > 16 | > 16 | > 16 | > 16 | > 16 | > 16 | 
6 | CCN1CCN(C(=O)N[C@@H](C(=O)N[C@@H]2C(=O)N3[C@@H]2SC(C)(C)[C@@H]3C(=O)O)c2ccccc2)C(=O)C1=O [PIPERACILLIN] | 63.2 | ≥ 128 | ≥ 128 | > 64 | > 64 | > 64 | > 64 | > 64 | 32 (≈ 61.8 µM) | > 64 | > 64 | > 64 | > 64 | > 64 | 
7 | NCC[C@H](O)C(=O)N[C@@H]1C[C@H](N)[C@@H](O[C@H]2O[C@H](CN)[C@@H](O)[C@H](O)[C@H]2O)[C@H](O)[C@H]1O[C@H]1O[C@H](CO)[C@@H](O)[C@H](N)[C@H]1O [AMIKACIN] | 52.6 | 32 (≈ 54.6 µM) | ≥ 64 |  |  |  |  |  |  |  |  |  |  |  | 
8 | GENTAMICIN | 52.6 | 8 | > 16 |  |  |  |  |  |  |  |  |  |  |  | 
9 | CO/N=C(\C(=O)N[C@@H]1C(=O)N2C(C(=O)[O-])=C(C[N+]3(C)CCCC3)CS[C@H]12)c1csc(N)n1 [CEFEPIME] | 63.2 | ≥ 32 | ≥ 32 | > 16 | > 16 | > 16 | > 16 | > 16 | > 16 | > 16 | > 16 | > 16 | > 16 | > 16 | 
10 | CC1(C)[C@H](C(=O)O)N2C(=O)C[C@H]2S1(=O)=O [SULBACTAM] |  |  |  |  |  |  |  |  |  |  |  |  |  |  | MIC (Acinetobacter pittii [14]): 2 µg/mL (≈ 8.57 µM); MIC50 (Acinetobacter pittii [15]): 2 µg/mL (≈ 8.57 µM); MIC90 (Acinetobacter pittii [15]): 4 µg/mL (≈ 17.1 µM); MIC (Acinetobacter pittii [16]): 2 µg/mL (≈ 8.57 µM); MIC (Acinetobacter pittii [17]): 4 µg/mL (≈ 17.1 µM); MIC (Acinetobacter pittii [18]): 4 µg/mL (≈ 17.1 µM); MIC (Acinetobacter pittii [19]): 4 µg/mL (≈ 17.1 µM); MIC (Acinetobacter pittii [20]): 4 µg/mL (≈ 17.1 µM); MIC (Acinetobacter pittii [21]): 4 µg/mL (≈ 17.1 µM); Activity (Acinetobacter pittii [22]): 0%; MIC (Acinetobacter pittii [23]): 2 µg/mL (≈ 8.57 µM); MIC (Acinetobacter pittii [24]): 4 µg/mL (≈ 17.1 µM); MIC (Acinetobacter pittii [25]): 4 µg/mL (≈ 17.1 µM); MIC (Acinetobacter pittii [26]): 4 µg/mL (≈ 17.1 µM)
11 | NC[C@H]1O[C@H](O[C@H]2[C@H](O)[C@@H](O[C@H]3O[C@H](CO)[C@@H](O)[C@H](N)[C@H]3O)[C@H](N)C[C@@H]2N)[C@H](N)C[C@@H]1O [TOBRAMYCIN] | 42.1 | 8 (≈ 17.1 µM) | ≥ 16 |  |  |  |  |  |  |  |  |  |  |  | 
12 | C[C@@H](O)[C@H]1C(=O)N2C(C(=O)O)=C(S[C@@H]3CN[C@H](C(=O)N(C)C)C3)[C@H](C)[C@H]12 [MEROPENEM] | 57.9 | 16 (≈ 41.7 µM) | 32 (≈ 83.4 µM) | 16 (≈ 41.7 µM) | 16 (≈ 41.7 µM) | 16 (≈ 41.7 µM) | 32 (≈ 83.4 µM) | 16 (≈ 41.7 µM) | 32 (≈ 83.4 µM) | 16 (≈ 41.7 µM) | 32 (≈ 83.4 µM) | 16 (≈ 41.7 µM) | 32 (≈ 83.4 µM) | 64 (≈ 167 µM) | 
13 | C[C@@H](O)[C@H]1C(=O)N2C(C(=O)O)=C(SCCNC=N)C[C@H]12 [IMIPENEM ANHYDROUS] | 57.9 | 16 (≈ 53.4 µM) | 32 (≈ 107 µM) | 32 (≈ 107 µM) | 16 (≈ 53.4 µM) | 32 (≈ 107 µM) | 32 (≈ 107 µM) | 32 (≈ 107 µM) | 32 (≈ 107 µM) | 32 (≈ 107 µM) | 16 (≈ 53.4 µM) | 32 (≈ 107 µM) | 16 (≈ 53.4 µM) | 64 (≈ 214 µM) | 
14 | CN(C)c1cc(NC(=O)CNC(C)(C)C)c(O)c2c1C[C@H]1C[C@H]3[C@H](N(C)C)C(O)=C(C(N)=O)C(=O)[C@@]3(O)C(O)=C1C2=O [TIGECYCLINE] | 0 | 0.12 (≈ 0.205 µM) | 0.5 (≈ 0.854 µM) |  |  |  |  |  |  |  |  |  |  |  | Activity (Enterobacteriaceae [27]): >=8 ug ml-1; Activity (Enterobacteriaceae [28]): 4 µg/mL; Activity (Enterobacteriaceae [29]): <=2 ug ml-1
